Measurements published in patent US20240285670A1, “THERAPEUTIC TREATMENT OF TUMORS BY BLOCKING THE HEME SYNTHESIS-EXPORT AXIS” (Università degli Studi di Torino, priority 2021, published 2024).

Key:
Format in all cases: cell-based, human
[1] = system: Caco2 cells; assay: TCA cycle flux in Caco2 cells; settings: FLVCR1a-silenced vs scramble shRNA Caco2 cells
Description: (§1) TCA cycle flux is reported in the centre of the figure and expressed as pmol CO2/h/mg protein. Data represent mean±SEM, n=3. For statistical analyses, an unpaired Student's t-test was used. **=p<0.01. Moreover, TCA cycle enzymes activities are reported in boxes and expressed as mU/mg mitochondrial proteins. Data represent mean±SEM, n=3. For statistical analyses, an unpaired Student's t-test was used; *=p<0.05, ***=p<0.001. […] Results are expressed as pmol CO2/h/mg protein. Data represent mean±SEM, n=3. For statistical analyses, an unpaired Student's t-test was used; *=p<0.05, **=p<0.01.
(A) TCA cycle flux in Caco2 cells expressing a scramble shRNA untreated or treated with 25 μM hemin for 2 hours. Moreover, the TCA cycle flux of untreated FLVCR1a-silenced Caco2 cells is reported for comparison. Results are expressed as pmol CO2/h/mg protein. Data represent mean±SEM, n=3. […] Results are expressed as pmol CO2/h/mg protein. […] Results are expressed as pmol CO2/h/mg protein. […]
The glucose flux through TCA cycle was measured by radiolabeling cells with 2 μCi/ml [6-^14C]-glucose (55 mCi/mmol; PerkinElmer, Waltham, MA, USA, catalog n° NEC045X). […] The amount of glucose transformed into CO2 through the TCA cycle was calculated as described (Riganti et al., 2004) and expressed as pmoles CO2/h/mg cell proteins.

[2] = system: SKCO1 cells; assay: TCA cycle flux in SKCO1 cells; settings: FLVCR1a-silenced vs scramble shRNA SKCO1 cells
Description: as §1
The glucose flux through TCA cycle was measured by radiolabeling cells with 2 μCi/ml [6-^14C]-glucose (55 mCi/mmol; PerkinElmer, Waltham, MA, USA, catalog n° NEC045X). Cell suspensions were incubated for 1 hour in a closed experimental system to trap the ^14CO2 developed from [^14C]-glucose. The reaction was stopped by injecting 0.5 ml of 0.8N HClO4. The amount of glucose transformed into CO2 through the TCA cycle was calculated as described (Riganti et al., 2004) and expressed as pmoles CO2/h/mg cell proteins.

[3] = system: ALAS1; assay: qRT-PCR analysis of ALAS1 expression in C80 cells; settings: FLVCR1a-silenced vs scramble shRNA C80 cells
Experimental: (A) Heme content in Caco2 cells treated with 5 mM 5-ALA (black bars and white bars) or with 5 mM 5-ALA+0.5 mM SA (light grey outlined bars) for the indicated time points. […] Values are expressed as relative fluorescence intensity. Data represent mean±SEM, n=2. For statistical analyses, a two-way analysis of variance was used, followed by the Bonferroni correction for multiple group comparisons; **=p<0.01, ***=p<0.001. 5-ALA, 5-aminolevulinic acid; SA, succinylacetone. (B) Intracellular 5-ALA levels. […] Values are expressed as peak area/μg proteins. Data represent mean±SEM of n=4 wells pooled from two independent experiments. For statistical analyses, an unpaired Student's t-test was used; **=p<0.01. 5-ALA, 5-aminolevulinic acid. (C, D) Accumulation of ^13C2-5-ALA in cells incubated with U-^13C-glucose (C) or of ^13C3-5-ALA in cells incubated with U-^13C-glutamine (D) for the indicated time. […] Values are expressed as peak area/μg proteins. […] Transcript abundance, normalized to beta-actin mRNA expression, is expressed as a fold increase over a calibrator sample. […] Band intensities were measured by densitometry and normalized to vinculin expression. […]
RNA extraction and quantitative real-time PCR analyses were performed as described previously (Destefanis et al., 2019). […] Quantitative real-time PCR (qRT-PCR) was performed using the Universal Probe Library system (Roche, Basel, CH). […]

Which “total flux of the TCA cycle” value [1] does the source give for “FLVCR1a shRNA: shRNA specifically down-regulating FLVCR1a without targeting FLVCR1b; pLKO.1 lentiviral clone TRCN0000059599, antisense SEQ ID No.: 2 (antisense TTGCTAATGATGCTGTACTGG; sense CCAGTACAGCATCATTAGCAA)” here?
The value was “significantly up-regulated”.

What about the TCA cycle flux [2] of the same substance?
The TCA cycle flux was “Increased TCA cycle flux”.

And the “ALAS1 expression (qRT-PCR)” value [3]?
The value was “reduced ALAS1 expression”.
